{"source": "patent US12709645B2", "about": "“Targeting gene amplification in cancer using triplex formation as a therapeutic strategy” (Yale University, priority 2018, dated 2026)", "key": {"[1]": {"tested_on": "BT474 human breast cancer tumors", "assay": "BT474 breast cancer subcutaneous xenograft model", "format": "in vivo, athymic nude mice", "conditions": "for tumor growth relative to controls / tumor tripling time post-initial dose: 20 mg/kg IP, 3 doses over 7 days", "procedure": "Six to seven-week old female BALB/c athymic, ovariectomized nude mice (Harlan Sprague-Dawley) were implanted with 0.72 mg, 60-day release 17β-estradiol pellets (Innovative Research). […] Tumor volumes in each group were then monitored and mice were sacrificed when tumor volumes reached 1000 mm^3. Error bars represent standard error of the mean. Tumor tripling time was calculated as the time required for tumors to increase in volume […] over baseline (defined as tumor volume before administration of dose on first day of treatment). Harvested tumors were fixed in 10% neutral buffered formalin and processed by Yale Pathology Tissue Services for H&E, Caspase 3, HER2, and Ki67. Images were taken at 4× magnification."}, "BT474 cells [2]": {"tested_on": "BT474 cells", "assay": "Neutral comet assay in BT474 cells", "format": "cell-based, human", "conditions": "24 hours post-treatment", "procedure": "(§1) Cells were seeded in six-well plates at a density of 2-4×10^5 cells per well the day before transfection. Cells were transfected with 2 μg of HER2-targeted TFO or MIX24 using Oligofectamine (Invitrogen) or Dharmafect-1 (Dharmacon) transfection reagent. Transfection was performed as per manufacturer's instructions. siRNA directed against p53, XPD and non-target controls (ON-Target plus SMARTpool reagents; (Dharmacon) were transfected into BT474 cells using Dharmafect-1 transfection reagent (Dharmacon) according to the manufacturers instructions. Western blot analysis was used to confirm knockdown of protein.\n(§2) Comet Assay. Neutral cornet assays were performed 24 h post TFO-transfection as per the manufacturers instructions (Trevigen) with the adjustment of 3.5×10^5 cells/ml for each single cell suspension and 30 minutes electrophoresis. Comets were visualized using an Axiovert 200 microscope and analyzed with Autocomet software. Approximately 100-200 comets were analyzed per experiment. Results were expressed as mean tail moment."}, "[3]": {"tested_on": "cell lines containing multiple copies of the HER2 gene", "assay": "Neutral comet assay in breast cancer cell lines", "format": "cell-based, human", "conditions": "24 h after treatment", "procedure": "(§3) Cell Lines and Transfections. Human breast cancer cell lines were obtained from ATCC and routinely tested for mycoplasma. The human cell lines, MDA-MB-453, SKBR3, and BT474 are HER2-amplified breast cancer cell lines. BT20 and MCF7 cells are non-amplified breast cancer cell lines. MCF-10A is a non-tumorigenic breast epithelial cell line. PEO1 and SKOV3 are human ovarian cancer cell lines with HER2 gene amplification.\nas §1\nComet Assay. […] Comets were visualized using an Axiovert 200 microscope and analyzed with Autocomet software. Approximately 100-200 comets were analyzed per experiment. Results were expressed as mean tail moment."}, "BT474 cells [4]": {"tested_on": "BT474 cells", "assay": "Immunofluorescence of γH2AX and 53BP1 foci in BT474 cells", "format": "cell-based, human", "procedure": "(§4) Immunofluorescence. Cells were seeded onto UV-irradiated coverslips and were treated for 24 h with HER2-205, MIX24, or a mock transfection. Cells were processed 24 h post-transfection, fixed with 4% formaldehyde and then incubated with ice-cold 100% methanol for 20 minutes followed by a methanol and acetone solution (1:1) for 20 minutes each at −20° C. After washing with PBS, cells were blocked with blocking buffer (4% BSA, 0.2% Triton X-100 in PBS) for 30 minutes and then incubated overnight with the following primary antibodies: γH2AX (1:500; Cell Signaling or Millipore) and 53BP1 (1:100; Santa Cruz) in blocking buffer at 4° C. After three washes, cells were incubated with secondary antibodies Alexa 488 F(ab′)2 fragment goat anti-rabbit IgG or Alexa 568 F(ab′)2 fragment goat anti-mouse IgG (1:1000; Molecular Probes) for 1 h at room temperature. Cells were then mounted on microscope glass slides with anti-fade mounting media containing DAPI (Life Technologies), and pictures were taken with a Leica SP5 microscope. Immunofluorescence experiments were repeated for validation."}, "HER2-positive cell lines": {"tested_on": "HER2-positive cell lines", "assay": "Annexin-V apoptosis analysis in breast cancer cell lines", "format": "cell-based, human", "conditions": "24 h post TFO-treatment", "procedure": "as §3\n(§5) Apoptosis analysis. Cells (2−4×10^5) were seeded in six-well plates 24 h prior to treatment with MIX24, HER2-1 or HER2-205 (2 μg). Post-treatment analysis was performed using the Annexin V-FITC/PI apoptosis detection kit (BD Pharmingen) according to the manufacturers protocol. Apoptotic frequency was calculated as the combined percentage of early and late apoptotic cells. Data analysis was performed using Flow-Jo software."}, "PE01 and SKOV3 cells [5]": {"tested_on": "PE01 and SKOV3 cells", "assay": "Immunofluorescence of γH2AX foci in ovarian cancer cells", "format": "cell-based, human", "conditions": "24 h", "procedure": "as §4"}, "PE01 and SKOV3 cells [6]": {"tested_on": "PE01 and SKOV3 cells", "assay": "Neutral comet assay in ovarian cancer cells", "format": "cell-based, human", "procedure": "as §2"}, "PE01 and SKOV3 cells [7]": {"tested_on": "PE01 and SKOV3 cells", "assay": "Monolayer growth survival assay in ovarian cancer cells", "format": "cell-based, human", "conditions": "72 h after treatment", "procedure": "Survival Assay. Cell survival seas assayed by visualization of monolayer growth. Briefly, cells were plated at a defined density in 6 or 12-well dishes and treated with either transfection reagent alone (mock), MIX24, or HER2-205 as previously described. Monolayers were visualized by staining cells with crystal violet 72 h post-treatment."}, "PE01 and SKOV3 cells [8]": {"tested_on": "PE01 and SKOV3 cells", "assay": "Apoptosis in ovarian cancer cells (Annexin V, cleaved PARP)", "format": "cell-based, human", "conditions": "Annexin V 48 h post-treatment", "procedure": "(§6) Western blotting. Whole cell lysates were prepared from floating and adherent cells using RIPA buffer according to standard protocols. Total protein (30-50 μg per sample) was resolved by SDS-PAGE. Proteins were detected by a standard immunoblot protocol using the following primary antibodies: cleaved PARP, cleaved caspase 3, γH2AX, XPD, p53, HER2, pHER2 ([…]), HER3, pHER3 (Y1289), HER4, pHER4 (Y1284), EGFR, pEGFR (Y1068), Chk1, pChk1(S345), pChk2 (T68), and Chk2 (Cell Signaling Technology); pH2AX (tyrosine 142; EMD Millipore); tubulin (clone B-512; Sigma), and GAPDH-HRP (Proteintech). Each experiment was repeated with independent sample preparation a minimum of three times, and representative western blots are shown.\nas §5"}, "Chk1": {"tested_on": "Chk1", "assay": "Western blot of DNA damage response protein phosphorylation", "format": "cell-based, human", "conditions": "HER2-amplified vs normal copy number cells", "procedure": "as §6"}, "BT474 cells [9]": {"tested_on": "BT474 cells", "assay": "Flow cytometry of phosphorylated ATM", "format": "cell-based, human", "conditions": "24 h", "procedure": "Flow Cytometry. BT474 cells were collected 24 h following treatment with either MIX24 HER2-205. After washing with PBS, cells were incubated with 1% paraformaldehyde for 15 minutes on ice. Cells were then fixed with cold 70% ethanol at −20° C. for 2 h or kept for up to 2 weeks until further analysis. Cells were centrifuged and rinsed with PBS, blocked with PBST buffer (1% w/v bovine serum albumin and 0.2% v/v Triton X-100 in PBS) for 15 minutes on ice, followed by another PBS rinse. Cells were first incubated with anti-phospho-ATM (S1981, EMD Millipore) in PBST at 1:100 dilution for 1 h at room temperature. Cells were rinsed with PBST and incubated with anti-rabbit IgG Fab2 Alexa 488 (Molecular Probes) at 1:100 dilution at room temperature for 1 h, and then rinsed with PBST. Acquisition of labeled cells and analysis of data was completed using a flow cytometer (FACS Calibur) and FlowJo software respectively."}, "BT474 cells [10]": {"tested_on": "BT474 cells", "assay": "Apoptosis after XPD knockdown in BT474 cells (Western blot)", "format": "cell-based, human", "conditions": "siRNA XPD knockdown", "procedure": "as §1, §6"}, "HER2 [11]": {"tested_on": "HER2", "assay": "HER2 gene expression by RT-PCR", "format": "cell-based, human", "conditions": "non-amplified and amplified breast cancer cell lines", "procedure": "Gene Expression. RNA was extracted from snap-frozen cells using the RNeasy Kit (Qiagen) per the manufacturers protocol. cDNA synthesis was carried out with 10 μg of RNA via reverse transcription reactions and the High-Capacity cDNA Reverse Transcription Kit (ThermoFisher Scientific). cDNA (10 ng) was then combined with TaqMan Universal PCR master mix (20 μl) (Applied Biosystem) and primers specific to HER2 (HER2, Hs01001580_m1, ThermoFisher Scientific) or the internal control, β-actin (Hs99999903_m1, ThermoFisher Scientific). qRT-PCR was performed in 96-well optical plates in triplicate for each sample. Briefly, reactions were performed at 50° C. for 2 minutes, followed by 95° C. for 10 minutes. Amplification of the target or control gene was carried out with 40 cycles of the two-step reaction, which included 95° C. for 15 seconds and 1 minute at 60° C. β-actin expression levels were used to normalize the difference between cDNA levels in different samples. Relative expression levels were calculated using the 2(-Delta Delta C(T)) method."}, "HER2 [12]": {"tested_on": "HER2", "assay": "Western blot of total HER2 protein and phosphorylation levels", "format": "cell-based, human", "conditions": "HER2-positive cells compared to control samples", "procedure": "as §6"}, "[13]": {"tested_on": "SKOV3 ovarian cancer xenografts", "assay": "SKOV3 ovarian cancer subcutaneous xenograft model", "conditions": "HER2-205 20 mg/kg vs cisplatin 10 mg/kg, IP", "experimental": "To establish an ovarian cancer model, female BALB/c athymic nude mice were injected subcutaneously in the flank with 5×10^6 SKOV3 cells suspended in 100 μl equal volume of media and Matrigel. Mice bearing a tumor of about 100 mm^3 in volume were randomly divided into three treatment groups: vehicle (PBS), n=5; HER2-targeted TFO, HER2-205, n=5; and cisplatin, n=7. […] Tumor volumes were monitored and tumor tripling times were calculated as described above."}, "[14]": {"conditions": "24 h after single dose 20 mg/kg"}}}
{"substance": "MIX24: control mixed-sequence oligonucleotide, 5′-AGTCAGTCAGTCAGTCAGTCAGTC-3′ (DNA AGTCAGTCAGTCAGTCAGTCAGTC; listed as DNA, chemistry not given here) [reference compound]", "values": [{"measurement": "tumor growth relative to controls", "setting": "[1]", "value": "no impact"}, {"measurement": "tumor tripling time post-initial dose", "setting": "[1]", "value": "16.3 ± 6.6", "unit": "days"}]}
{"substance": "HER2-40118: TFO targeting intron 19 of the HER2 gene, 5′-GGGGGAAATAGGGAGGGTGGGG-3′ (triplex-forming oligonucleotide, chemistry not given here, further chemistry not given here)", "values": [{"measurement": "DSBs as indicated by DNA tail moment", "setting": "BT474 cells [2]", "value": "significantly, more DSBs"}]}
{"substance": "HER2-5922-2: TFO targeting intron 2 of the HER2 gene, 5′-GGGAAAGAGGAGGGGGTGAGAGGAGTGGGG-3′ (triplex-forming oligonucleotide, chemistry not given here, further chemistry not given here)", "values": [{"measurement": "DSBs as indicated by DNA tail moment", "setting": "BT474 cells [2]", "value": "significantly, more DSBs"}]}
{"substance": "HER2-205: TFO binding a polypurine sequence in the HER2 coding region, 5′-GAGGAGGAGTGGGAGAATGGGGGG-3′ (DNA GAGGAGGAGTGGGAGAATGGGGGG; DNA, backbone not given here)", "values": [{"measurement": "DSBs as indicated by DNA tail moment", "setting": "[3]", "value": "significantly more DSBs"}, {"measurement": "DSBs as indicated by DNA tail moment", "setting": "BT474 cells [2]", "value": "significantly, more DSBs"}, {"measurement": "colocalization of γH2AX and 53BP1, percent of cells", "setting": "BT474 cells [4]; 24 h", "value": 49, "unit": "%"}, {"measurement": "γH2AX and 53BP1 foci compared to MIX24", "setting": "BT474 cells [4]; 24 h post-treatment", "value": "substantially increased"}, {"measurement": "percentage of apoptotic cells (Annexin-V)", "setting": "HER2-positive cell lines", "value": "higher percentage of apoptotic cells than that with HER2-1"}, {"measurement": "γH2AX foci", "setting": "PE01 and SKOV3 cells [5]", "value": "increased"}, {"measurement": "DNA tail moments", "setting": "PE01 and SKOV3 cells [6]", "value": "increased"}, {"measurement": "cell viability (monolayer growth)", "setting": "PE01 and SKOV3 cells [7]", "value": "reduced cell viability"}, {"measurement": "apoptosis", "setting": "PE01 and SKOV3 cells [8]", "value": "activated apoptosis"}, {"measurement": "tumor growth relative to controls", "setting": "[1]", "value": "suppressed tumor growth to a significantly greater degree than the controls"}, {"measurement": "tumor tripling time post-initial dose", "setting": "[1]", "value": "29 ± 5.7", "unit": "days"}, {"measurement": "proliferation by Ki67 staining in tumor sections", "setting": "[1]; [14]", "value": "decreased proliferation"}, {"measurement": "tumor cell apoptosis (cleaved caspase 3) in tumor sections", "setting": "[1]; [14]", "value": "Tumor cell apoptosis"}, {"measurement": "reduction in tumor volumes compared to controls", "setting": "[1]; HER2-positive breast cancer xenografts", "value": 52, "unit": "%"}, {"measurement": "Chk1 phosphorylation at serine 345", "setting": "Chk1", "value": "observed after HER2-205 treatment in the HER2-amplified cells and not in the cells with normal HER2 gene copy numbers"}, {"measurement": "pATM positive cells", "setting": "BT474 cells [9]", "value": "increase"}, {"measurement": "phosphorylation of Y142 in H2AX and activation of apoptosis", "setting": "BT474 cells [10]", "value": "requirement for XPD"}, {"measurement": "HER2 gene expression", "setting": "HER2 [11]", "value": "not significantly affected"}, {"measurement": "total and activated HER2 levels", "setting": "HER2 [12]", "value": "remain the same"}, {"measurement": "survival (tumors smaller than three times baseline) compared with cisplatin", "setting": "[13]; 3 doses", "value": "substantial survival advantage"}, {"measurement": "average tumor volume smaller than in cisplatin-treated mice", "setting": "[13]; 3 doses once per week", "value": 49, "unit": "%"}]}
